Results taken from ChEMBL document CHEMBL3991601, “The target landscape of clinical kinase drugs” (Science, 2017).
Calls of active or inactive are those of the source. For most assays here, no stated cut-off is given here; in the data, actives have a measured Kd and inactives only a lower limit.

Legend:
[1] = biological target: T1, Acyl-CoA dehydrogenase family member 11 (Homo sapiens, UniProt Q709F0)
T1 sequence (Q709F0 whole entry): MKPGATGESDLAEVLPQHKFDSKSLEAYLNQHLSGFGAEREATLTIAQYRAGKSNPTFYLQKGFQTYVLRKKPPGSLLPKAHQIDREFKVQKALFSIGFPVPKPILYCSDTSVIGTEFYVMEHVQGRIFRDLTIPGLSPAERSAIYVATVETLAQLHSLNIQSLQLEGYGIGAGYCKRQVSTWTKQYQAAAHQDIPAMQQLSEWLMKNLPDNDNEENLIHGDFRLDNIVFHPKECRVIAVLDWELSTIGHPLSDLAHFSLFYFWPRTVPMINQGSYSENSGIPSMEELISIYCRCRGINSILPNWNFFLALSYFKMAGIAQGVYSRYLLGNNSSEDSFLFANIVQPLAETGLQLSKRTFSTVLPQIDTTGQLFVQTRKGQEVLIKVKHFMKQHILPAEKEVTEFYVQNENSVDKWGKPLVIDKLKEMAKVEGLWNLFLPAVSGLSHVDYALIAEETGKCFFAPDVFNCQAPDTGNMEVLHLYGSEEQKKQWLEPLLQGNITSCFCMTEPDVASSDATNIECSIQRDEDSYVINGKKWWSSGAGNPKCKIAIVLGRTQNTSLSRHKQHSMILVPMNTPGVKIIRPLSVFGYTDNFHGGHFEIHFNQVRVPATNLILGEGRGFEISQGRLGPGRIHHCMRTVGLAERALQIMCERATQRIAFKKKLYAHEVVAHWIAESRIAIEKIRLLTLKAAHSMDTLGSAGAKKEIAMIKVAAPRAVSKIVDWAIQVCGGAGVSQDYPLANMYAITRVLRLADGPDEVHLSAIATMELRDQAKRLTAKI

[2] = biological target: T2, Serine/threonine-protein kinase LATS1 (Homo sapiens, UniProt O95835)
T2 sequence (O95835 whole entry): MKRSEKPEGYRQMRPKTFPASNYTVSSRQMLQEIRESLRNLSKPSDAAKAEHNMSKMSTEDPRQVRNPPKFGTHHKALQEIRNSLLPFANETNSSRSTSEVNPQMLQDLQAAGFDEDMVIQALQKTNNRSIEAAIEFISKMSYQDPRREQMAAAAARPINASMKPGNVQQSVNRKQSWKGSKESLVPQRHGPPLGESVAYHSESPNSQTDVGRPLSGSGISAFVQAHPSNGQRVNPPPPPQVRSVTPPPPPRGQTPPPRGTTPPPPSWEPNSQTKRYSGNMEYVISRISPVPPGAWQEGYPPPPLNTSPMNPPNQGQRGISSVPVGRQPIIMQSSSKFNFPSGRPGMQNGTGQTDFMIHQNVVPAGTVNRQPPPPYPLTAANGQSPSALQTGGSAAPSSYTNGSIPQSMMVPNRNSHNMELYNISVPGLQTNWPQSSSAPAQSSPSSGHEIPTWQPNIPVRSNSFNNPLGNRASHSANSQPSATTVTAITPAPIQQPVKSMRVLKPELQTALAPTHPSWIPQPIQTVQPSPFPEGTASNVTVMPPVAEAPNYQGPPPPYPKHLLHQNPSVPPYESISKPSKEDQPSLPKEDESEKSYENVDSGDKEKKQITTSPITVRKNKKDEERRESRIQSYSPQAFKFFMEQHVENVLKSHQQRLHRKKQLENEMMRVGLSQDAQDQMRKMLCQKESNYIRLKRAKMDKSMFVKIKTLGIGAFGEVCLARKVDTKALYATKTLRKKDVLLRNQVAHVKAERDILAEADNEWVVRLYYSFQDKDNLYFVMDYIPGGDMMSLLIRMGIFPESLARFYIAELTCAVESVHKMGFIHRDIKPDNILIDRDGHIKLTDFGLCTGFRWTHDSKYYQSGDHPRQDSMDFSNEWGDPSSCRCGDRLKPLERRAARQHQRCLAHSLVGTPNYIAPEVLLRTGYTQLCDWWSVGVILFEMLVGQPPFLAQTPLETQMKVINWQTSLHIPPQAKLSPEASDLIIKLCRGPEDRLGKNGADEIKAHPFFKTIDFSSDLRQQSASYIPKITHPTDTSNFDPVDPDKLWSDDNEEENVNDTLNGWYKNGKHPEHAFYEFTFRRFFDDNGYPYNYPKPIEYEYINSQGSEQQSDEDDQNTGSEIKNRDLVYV

[3] = biological target: LIM domain kinase 2 (Homo sapiens, UniProt P53671)
Chain of LIM domain kinase 2 (P53671 whole entry, the tested form may be a part): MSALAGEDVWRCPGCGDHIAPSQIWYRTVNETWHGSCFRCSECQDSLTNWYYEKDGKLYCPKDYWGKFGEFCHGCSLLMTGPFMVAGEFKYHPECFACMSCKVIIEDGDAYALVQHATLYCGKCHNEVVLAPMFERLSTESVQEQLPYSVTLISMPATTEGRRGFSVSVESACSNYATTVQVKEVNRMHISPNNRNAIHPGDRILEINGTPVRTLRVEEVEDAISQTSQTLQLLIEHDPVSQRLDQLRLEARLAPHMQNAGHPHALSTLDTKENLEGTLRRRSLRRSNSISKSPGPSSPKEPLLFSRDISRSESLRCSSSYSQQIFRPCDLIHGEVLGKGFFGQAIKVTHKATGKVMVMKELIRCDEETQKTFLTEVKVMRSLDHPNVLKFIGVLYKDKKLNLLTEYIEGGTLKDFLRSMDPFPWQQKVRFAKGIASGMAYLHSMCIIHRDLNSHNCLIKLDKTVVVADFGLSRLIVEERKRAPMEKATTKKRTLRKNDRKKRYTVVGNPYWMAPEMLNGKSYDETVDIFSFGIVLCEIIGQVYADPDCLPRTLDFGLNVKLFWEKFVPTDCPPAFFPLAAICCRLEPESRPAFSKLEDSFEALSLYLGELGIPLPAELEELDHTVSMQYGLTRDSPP

[4] = biological target: T3, Glycogen phosphorylase, liver form (Homo sapiens, UniProt P06737); assay type: subcellular, K-562, COLO 205, SK-N-BE(2) and MV-4-11, Cell lysate; details: read-out: Kd apparent
T3 sequence (P06737 whole entry): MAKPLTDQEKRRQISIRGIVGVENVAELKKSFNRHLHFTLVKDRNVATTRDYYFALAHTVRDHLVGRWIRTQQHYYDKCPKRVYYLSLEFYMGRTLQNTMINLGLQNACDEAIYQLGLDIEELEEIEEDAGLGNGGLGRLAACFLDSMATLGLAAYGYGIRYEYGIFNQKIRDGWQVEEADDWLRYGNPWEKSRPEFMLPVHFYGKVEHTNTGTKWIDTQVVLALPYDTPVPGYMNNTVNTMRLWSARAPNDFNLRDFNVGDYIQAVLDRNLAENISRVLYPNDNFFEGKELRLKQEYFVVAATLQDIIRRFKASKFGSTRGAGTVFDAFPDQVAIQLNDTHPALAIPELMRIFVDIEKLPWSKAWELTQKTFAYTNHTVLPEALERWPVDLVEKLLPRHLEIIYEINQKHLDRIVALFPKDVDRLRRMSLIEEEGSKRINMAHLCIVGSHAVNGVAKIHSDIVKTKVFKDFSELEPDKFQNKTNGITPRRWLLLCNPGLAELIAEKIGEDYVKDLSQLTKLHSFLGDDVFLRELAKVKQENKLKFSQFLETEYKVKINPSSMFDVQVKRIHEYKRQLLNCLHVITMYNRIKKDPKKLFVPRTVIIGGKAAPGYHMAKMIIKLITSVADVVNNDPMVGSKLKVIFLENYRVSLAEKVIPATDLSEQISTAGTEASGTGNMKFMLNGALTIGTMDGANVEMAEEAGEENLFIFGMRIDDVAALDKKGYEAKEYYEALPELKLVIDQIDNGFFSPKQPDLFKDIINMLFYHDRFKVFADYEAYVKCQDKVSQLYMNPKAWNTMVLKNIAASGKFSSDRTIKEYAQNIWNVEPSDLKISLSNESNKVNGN

[5] = biological target: Casein kinase I isoform epsilon (Homo sapiens, UniProt P49674)
Chain of Casein kinase I isoform epsilon (P49674 whole entry, canonical isoform): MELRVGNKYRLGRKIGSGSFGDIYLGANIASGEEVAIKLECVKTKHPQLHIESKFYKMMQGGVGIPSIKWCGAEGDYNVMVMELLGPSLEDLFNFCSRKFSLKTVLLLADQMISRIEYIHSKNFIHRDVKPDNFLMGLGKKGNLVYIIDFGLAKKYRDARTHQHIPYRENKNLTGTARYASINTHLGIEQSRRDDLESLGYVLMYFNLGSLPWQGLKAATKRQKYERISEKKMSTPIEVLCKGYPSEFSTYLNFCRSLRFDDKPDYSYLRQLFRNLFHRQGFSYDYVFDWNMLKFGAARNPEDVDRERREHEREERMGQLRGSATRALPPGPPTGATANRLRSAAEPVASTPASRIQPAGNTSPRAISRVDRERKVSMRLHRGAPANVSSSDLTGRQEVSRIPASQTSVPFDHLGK

[6] = biological target: Ribosomal protein S6 kinase alpha-5 (Homo sapiens, UniProt O75582)
Chain of Ribosomal protein S6 kinase alpha-5 (O75582 whole entry): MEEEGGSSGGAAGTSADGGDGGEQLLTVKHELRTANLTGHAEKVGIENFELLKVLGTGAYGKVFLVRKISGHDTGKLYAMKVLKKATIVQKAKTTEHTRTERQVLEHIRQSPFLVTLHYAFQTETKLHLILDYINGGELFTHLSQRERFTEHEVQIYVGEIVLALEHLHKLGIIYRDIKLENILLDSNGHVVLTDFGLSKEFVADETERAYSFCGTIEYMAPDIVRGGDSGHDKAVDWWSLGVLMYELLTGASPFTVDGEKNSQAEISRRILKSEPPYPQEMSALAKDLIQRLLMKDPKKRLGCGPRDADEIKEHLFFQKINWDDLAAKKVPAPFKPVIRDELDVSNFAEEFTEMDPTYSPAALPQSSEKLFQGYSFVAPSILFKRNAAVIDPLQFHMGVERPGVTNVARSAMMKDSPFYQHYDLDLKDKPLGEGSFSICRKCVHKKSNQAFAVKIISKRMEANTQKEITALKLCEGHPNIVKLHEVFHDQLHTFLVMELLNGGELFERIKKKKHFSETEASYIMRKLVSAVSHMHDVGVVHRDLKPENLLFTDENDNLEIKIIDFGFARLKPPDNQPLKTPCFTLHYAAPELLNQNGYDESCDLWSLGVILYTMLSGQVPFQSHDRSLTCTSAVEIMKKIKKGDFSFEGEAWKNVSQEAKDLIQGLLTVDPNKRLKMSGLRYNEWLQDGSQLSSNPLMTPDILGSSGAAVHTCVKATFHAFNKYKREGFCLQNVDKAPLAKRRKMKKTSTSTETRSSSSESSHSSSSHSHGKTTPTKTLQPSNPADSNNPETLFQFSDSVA

Measured: Kd

Cn1cc(-c2cnc3ccc4ccc(CS(=O)(=O)NCc5ccccn5)cc4c(=O)c3c2)cn1 [MK-8033]
inactive: [1] > 30 µM | [2] > 30 µM | [3] > 30 µM | [4] > 30 µM | [5] > 30 µM | [6] > 30 µM

Cn1cc(C2=C(c3cn(C4CCN(Cc5ccccn5)CC4)c4ccccc34)C(=O)NC2=O)c2ccccc21 [ENZASTAURIN]
inactive: [4] > 30 µM

CN(C[C@@H]1COCCO1)S(=O)(=O)Nc1ccc2ccc3ncc(-c4cnn(C)c4)cc3c(=O)c2c1 [MK-2461]
inactive: [2] > 30 µM | [3] > 30 µM | [4] > 30 µM | [5] > 30 µM | [6] > 30 µM

CN1C/C=C/CCOc2cccc(c2)-c2ccnc(n2)Nc2cccc(c2)C1 [ZOTIRACICLIB]
inactive: [1] > 30 µM | [2] > 30 µM | [3] > 30 µM | [4] > 30 µM | [5] > 30 µM | [6] > 30 µM

CC(=O)c1cnc2ccc(-c3cc(Cl)c(O)c(Cl)c3)nc2c1N[C@H]1CC[C@H](CN(C)C)CC1
active: [2] 0.014 µM | [6] 0.298 µM
inactive: [3] > 30 µM | [4] > 30 µM

Cc1cc(Nc2ncc(Cl)c(Nc3ccccc3S(=O)(=O)C(C)C)n2)c(OC(C)C)cc1C1CCNCC1 [CERITINIB]
inactive: [1] > 30 µM | [2] > 30 µM | [3] > 30 µM | [4] > 30 µM | [5] > 30 µM | [6] > 30 µM

Cc1nc2cc(-n3ncc(C(=O)c4cc5ccccc5[nH]4)c3N)ccc2[nH]1 [FGFR INHIBITOR DEBIO 1347]
inactive: [2] > 30 µM | [3] > 30 µM | [4] > 30 µM | [5] > 30 µM | [6] > 30 µM

N#CC[C@H](C1CCCC1)n1cc(-c2ncnc3[nH]ccc23)cn1 [RUXOLITINIB]
inactive: [1] > 30 µM | [4] > 30 µM

CNC(=O)c1nn(C)c2c1C(C)(C)Cc1cnc(Nc3ccc(N4CCN(C)CC4)cc3)nc1-2 [MILCICLIB]
active: [2] 0.681 µM
inactive: [1] > 30 µM | [3] > 30 µM | [4] > 30 µM | [6] > 30 µM

Cn1ncc(Cl)c1-c1cc(C(=O)N[C@H](CN)Cc2ccc(F)c(F)c2)oc1Cl [UPROSERTIB]
inactive: [3] > 30 µM | [4] > 30 µM | [5] > 30 µM | [6] > 30 µM
3.59 µM: [2]

CC(=O)NCC(=O)N1[C@@H]2CC[C@H]1c1ccc(Nc3ncc(C(F)(F)F)c(NC4CCC4)n3)cc12 [PF-03814735]
inactive: [1] > 30 µM | [3] > 30 µM | [4] > 30 µM | [6] > 30 µM
active: [2] 0.406 µM

CCCCCCCCCCCCCCCCCCOP(=O)([O-])OC1CC[N+](C)(C)CC1 [PERIFOSINE]
inactive: [2] > 30 µM | [3] > 30 µM | [4] > 30 µM | [5] > 30 µM | [6] > 30 µM

C[C@@H](Oc1cc(C(=O)Nc2ccc(C(=O)N3CCN(C)CC3)cc2)nnc1N)c1c(Cl)ccc(F)c1Cl
inactive: [2] > 30 µM | [3] > 30 µM | [4] > 30 µM | [5] > 30 µM | [6] > 30 µM

COc1cc([C@@H]2c3cc4c(cc3[C@H](O)[C@H]3COC(=O)[C@@H]23)OCO4)cc(OC)c1OC [AXL-1717]
inactive: [2] > 30 µM | [3] > 30 µM | [4] > 30 µM | [5] > 30 µM | [6] > 30 µM

Cc1[nH]c(/C=C2\C(=O)Nc3ccccc32)c(C)c1CCC(=O)O [ORANTINIB]
inactive: [1] > 30 µM | [3] > 30 µM | [4] > 30 µM

CNC(=O)c1ccccc1Sc1ccc2c(/C=C/c3ccccn3)n[nH]c2c1 [AXITINIB]
inactive: [1] > 30 µM | [4] > 30 µM

Nc1ncnc2c1c(-c1cccc(OCc3ccccc3)c1)cn2[C@H]1C[C@@H](CN2CCC2)C1 [AEW-541]
active: [2] 3.88 µM | [5] 60.5 µM
inactive: [3] > 30 µM | [4] > 30 µM | [6] > 30 µM

C[C@@H](Oc1cc(-n2cnc3ccc(CN4CCN(C)CC4)cc32)sc1C(N)=O)c1ccccc1C(F)(F)F [GSK-461364]
inactive: [1] > 30 µM | [4] > 30 µM

CNC(=O)c1cc(Oc2ccc(NC(=O)Nc3cc(C(C)(C)C)nn3-c3ccc4ncccc4c3)c(F)c2)ccn1 [REBASTINIB]
active: [3] 3.5 µM
inactive: [1] > 30 µM | [2] > 30 µM | [4] > 30 µM | [5] > 30 µM

C=CC(=O)Nc1cc2c(Nc3ccc(F)c(Cl)c3)ncnc2cc1C#CC(C)(C)N1CCN(C)CC1 [AV-412 FREE BASE]
inactive: [2] > 30 µM | [3] > 30 µM | [4] > 30 µM | [5] > 30 µM | [6] > 30 µM

C[C@@H](NC(=O)c1ncnc(N)c1Cl)c1ncc(C(=O)Nc2cc(C(F)(F)F)c(Cl)cn2)s1 [TOVORAFENIB]
inactive: [2] > 30 µM | [3] > 30 µM | [4] > 30 µM | [5] > 30 µM | [6] > 30 µM

O=C(NOCCO)c1cc(CN2OCCCC2=O)c(F)c(F)c1Nc1ccc(I)cc1F [RO-4987655]
inactive: [1] > 30 µM | [4] > 30 µM

NC(=O)c1c(OCc2c(F)cc(Br)cc2F)nsc1NC(=O)NCCCCN1CCCC1 [OSI-632]
1.47 µM: [5]
inactive: [1] > 30 µM | [2] > 30 µM | [3] > 30 µM | [4] > 30 µM
